Measurements reported in patent US20150359220A1, “COMPOSITIONS COMPRISING GOUGEROTIN AND A FUNGICIDE” (BAYER CROPSCIENCE LP, priority 2013, published 2015).
Counter-ions that a name gives are not always drawn. Like-named read-outs stand apart in the source and are kept apart here.

Assays:
Alternaria solani = test: Alternaria test (tomatoes)/preventive; assay type: in vivo; conditions: 3 days after inoculation
[1] = system: Blumeria graminis fsp. hordei; test: Blumeria test (barley)/preventive; assay type: in vivo; conditions: 7 days after inoculation
Phytophthora infestans = test: whole plant or invertebrate; assay type: in vivo; conditions: for Efficacy in % found: 3 days after inoculation
Puccinia triticina = test: Puccinia triticina-test (wheat)/preventive; assay type: in vivo; conditions: 8 days after inoculation
Sphaerotheca fuliginea = test: Sphaerotheca test (cucumbers)/preventive; assay type: in vivo
Venturia inaequalis = test: Venturia test (apples)/preventive; conditions: for Efficacy in % found: 10 days after inoculation
Protocol: After the spray coating has dried on, the plants are inoculated with an aqueous conidia suspension of the causal agent of apple scab (Venturia inaequalis) and then remain for 1 day in an incubation cabinet at approximately 20° C. and a relative atmospheric humidity of 100%. The plants are then placed in a greenhouse at approximately 21° C. and a relative atmospheric humidity of approximately 90%.
The test is evaluated 10 days after the inoculation.

Septoria tritici = test: Septoria tritici-test (wheat)/preventive; assay type: in vivo; conditions: 21 days after inoculation
Pyrenophora teres = test: Pyrenophora teres-test (barley)/preventive; assay type: in vivo; conditions: 8 days after inoculation
Botrytis cinerea = test: Botrytis test (beans)/preventive; conditions: Table 7, size of lesions 2 days after inoculation
Protocol: After the spray coating has dried on, 2 small pieces of agar covered with growth of Botrytis cinerea are placed on each leaf. The inoculated plants are placed in a darkened chamber at 20° C. and a relative atmospheric humidity of 100%.
2 days after the inoculation, the size of the lesions on the leaves is evaluated.

[2] = Alternaria solani, topical, 72 h, Table 2, 2 ppm a.i., read-out: Efficacy in % found
[3] = Phytophthora infestans, topical, 72 h, read-out: Efficacy in % found
[4] = Podosphaera fuliginea, 168 h, Table 19, 1 ppm a.i., 7 days after inoculation, read-out: Efficacy in % found
[5] = Venturia inaequalis, 240 h, read-out: Efficacy in % found
[6] = Podosphaera fuliginea, 168 h, Table 20, 100 ppm a.i., 7 days after inoculation, read-out: Efficacy in % found
[7] = Table 18, 0.5 ppm a.i., 7 days after inoculation
[8] = Table 18, 100 ppm a.i., 7 days after inoculation
[9] = Table 19, 20 ppm a.i., 7 days after inoculation

Compound: CC1COC(Cn2cncn2)(c2ccc(Oc3ccc(Cl)cc3)cc2Cl)O1 (stereo not drawn) [F7, difenoconazole]
- pest or weed control at 2 ppm (Alternaria solani; [2]): 30%
- Efficacy in % found ([1]; Table 6, 62.5 ppm a.i.): 44%
- Efficacy in % found ([1]; Table 6, 125 ppm a.i.): 67%
- pest or weed control at 100 ppm (Phytophthora infestans; [3]): 0%
- Efficacy in % found (Puccinia triticina; Table 13, 31.25 ppm a.i.): 30%
- Efficacy in % found (Puccinia triticina; Table 13, 62.5 ppm a.i.): 60%
- pest or weed control at 1 ppm (Sphaerotheca fuliginea; [4]): 0%
- pest or weed control at 1 ppm (Venturia inaequalis; [5]): 38%

Compound: CC1(C(=O)Nc2ccc(O)c(Cl)c2Cl)CCCCC1 [F16, fenhexamid]
- pest or weed control at 50 ppm (Alternaria solani; Alternaria solani, topical, 72 h, Table 4, 50 ppm a.i., read-out: Efficacy in % found): 50%
- pest or weed control at 100 ppm (Phytophthora infestans; [3]): 0%
- pest or weed control at 100 ppm (Sphaerotheca fuliginea; [6]): 0%
- pest or weed control at 25 ppm (Venturia inaequalis; [5]): 0%

Compound: OC(Cc1ccccc1Cl)(Cn1nc[nH]c1=S)C1(Cl)CC1 (stereo not drawn) [F41, prothioconazole]
- pest or weed control at 2 ppm (Alternaria solani; [2]): 0%
- pest or weed control at 100 ppm (Phytophthora infestans; [3]): 45%
- pest or weed control at 1 ppm (Sphaerotheca fuliginea; [4]): 43%
- pest or weed control at 1 ppm (Venturia inaequalis; [5]): 0%

Compound: CC(C)(C)C(O)(CCc1ccc(Cl)cc1)Cn1cncn1 (stereo not drawn) [F47, tebuconazole]
- pest or weed control at 2 ppm (Alternaria solani; [2]): 35%
- Efficacy in % found ([1]; Table 6, 31.25 ppm a.i.): 78%
- pest or weed control at 100 ppm (Phytophthora infestans; [3]): 15%
- Efficacy in % found (Puccinia triticina; Table 13, 31.25 ppm a.i.): 30%
- Efficacy in % found (Puccinia triticina; Table 13, 62.5 ppm a.i.): 60%
- Efficacy in % found (Septoria tritici; Table 17, 125 ppm a.i.): 57%
- pest or weed control at 1 ppm (Venturia inaequalis; [5]): 0%

Compound: O=C(NCCc1ncc(C(F)(F)F)cc1Cl)c1ccccc1C(F)(F)F [F70, fluopyram]
- Efficacy in % found (Alternaria solani; Table 2, 2 ppm a.i.): 40%
- Efficacy in % found ([1]; Table 5, 31.25 ppm a.i.): 0%
- Efficacy in % found ([1]; Table 5, 62.5 ppm a.i.): 0%
- Efficacy in % found (Pyrenophora teres; Table 15, 31.25 ppm a.i.): 60%
- Efficacy in % found (Pyrenophora teres; Table 15, 62.5 ppm a.i.): 80%
- Efficacy in % found (Septoria tritici; Table 16, 62.5 ppm a.i.): 0%
- Efficacy in % found (Sphaerotheca fuliginea; Table 19, 1 ppm a.i., 7 days after inoculation): 0%
- Efficacy in % found (Venturia inaequalis; Table 21, 1 ppm a.i.): 0%

Compound: CC(C)Oc1cccc(NC(=O)c2ccccc2C(F)(F)F)c1 [F71, flutolanil]
- pest or weed control at 100 ppm (Sphaerotheca fuliginea; [6]): 20%
- Efficacy in % found (Botrytis cinerea; 250 ppm a.i.): 30%
- pest or weed control at 50 ppm (Venturia inaequalis; [5]): 0%

Compound: Cn1cc(C(=O)Nc2ccccc2-c2cc(F)c(F)c(F)c2)c(C(F)F)n1 [F72, fluxapyroxad]
- Efficacy in % found (Alternaria solani; Table 2, 0.5 ppm a.i.): 45%
- Efficacy in % found ([1]; Table 5, 31.25 ppm a.i.): 0%
- Efficacy in % found (Phytophthora infestans; Table 9, 100 ppm a.i.): 0%
- Efficacy in % found (Puccinia triticina; Table 12, 15.625 ppm a.i.): 22%
- Efficacy in % found (Puccinia triticina; Table 12, 31.25 ppm a.i.): 22%
- Efficacy in % found (Pyrenophora teres; Table 15, 15.625 ppm a.i.): 80%
- Efficacy in % found (Pyrenophora teres; Table 15, 31.25 ppm a.i.): 90%
- Efficacy in % found (Septoria tritici; Table 16, 31.25 ppm a.i.): 13%
- Efficacy in % found (Venturia inaequalis; Table 21, 0.25 ppm a.i.): 0%

Compound: Cc1nn(C)c(F)c1C(=O)Nc1ccccc1C(C)CC(C)C (stereo not drawn) [F84, penflufen]
- Efficacy in % found (Phytophthora infestans; Table 9, 100 ppm a.i.): 8%
- Efficacy in % found (Puccinia triticina; Table 12, 31.25 ppm a.i.): 67%
- Efficacy in % found (Pyrenophora teres; Table 15, 62.5 ppm a.i.): 70%
- Efficacy in % found (Pyrenophora teres; Table 15, 125 ppm a.i.): 60%
- Efficacy in % found (Sphaerotheca fuliginea; Table 19, 0.5 ppm a.i., 7 days after inoculation): 0%
- Efficacy in % found (Venturia inaequalis; Table 21, 0.5 ppm a.i.): 0%

Compound: CO/C=C(/C(=O)OC)c1ccccc1Oc1cc(Oc2ccccc2C#N)ncn1 [F107, azoxystrobin]
- Efficacy in % found (Alternaria solani; Table 3, 2 ppm a.i.): 41%
- Efficacy in % found ([1]; Table 5, 31.25 ppm a.i.): 10%
- Efficacy in % found (Puccinia triticina; Table 12, 7.8125 ppm a.i.): 67%
- Efficacy in % found (Pyrenophora teres; Table 15, 15.625 ppm a.i.): 60%
- Efficacy in % found (Pyrenophora teres; Table 15, 31.25 ppm a.i.): 90%
- Efficacy in % found (Septoria tritici; Table 16, 15.625 ppm a.i.): 13%
- Efficacy in % found (Septoria tritici; Table 16, 31.25 ppm a.i.): 50%
- Efficacy in % found (Sphaerotheca fuliginea; [7]): 37%
- Efficacy in % found (Venturia inaequalis; Table 22, 0.5 ppm a.i.): 84%

Compound: CSC1=N[C@@](C)(c2ccccc2)C(=O)N1Nc1ccccc1 [F114, fenamidone]
- pest or weed control at 50 ppm (Alternaria solani; Alternaria solani, topical, 72 h, Table 3, 50 ppm a.i., read-out: Efficacy in % found): 62%
- pest or weed control at 1 ppm (Phytophthora infestans; [3]): 41%
- pest or weed control at 100 ppm (Sphaerotheca fuliginea; Podosphaera fuliginea, 168 h, Table 18, 100 ppm a.i., 7 days after inoculation, read-out: Efficacy in % found): 21%
- pest or weed control at 50 ppm (Venturia inaequalis; [5]): 0%

Compound: COC(=O)N(OC)c1ccccc1COc1ccn(-c2ccc(Cl)cc2)n1 [F121, pyraclostrobin]
- Efficacy in % found (Alternaria solani; Table 3, 2 ppm a.i.): 41%
- Efficacy in % found (Pyrenophora teres; Table 15, 31.25 ppm a.i.): 80%
- Efficacy in % found (Septoria tritici; Table 16, 31.25 ppm a.i.): 75%
- Efficacy in % found (Sphaerotheca fuliginea; [7]): 0%
- Efficacy in % found (Venturia inaequalis; Table 22, 0.5 ppm a.i.): 0%

Compound: CON=C(C(=O)OC)c1ccccc1CON=C(C)c1cccc(C(F)(F)F)c1 [F126, trifloxystrobin]
- Efficacy in % found (Alternaria solani; Table 3, 2 ppm a.i.): 47%
- Efficacy in % found ([1]; Table 5, 15.625 ppm a.i.): 50%
- Efficacy in % found ([1]; Table 5, 31.25 ppm a.i.): 60%
- Efficacy in % found (Septoria tritici; Table 16, 15.625 ppm a.i.): 50%
- Efficacy in % found (Septoria tritici; Table 16, 31.25 ppm a.i.): 75%
- Efficacy in % found (Sphaerotheca fuliginea; [7]): 0%
- Efficacy in % found (Venturia inaequalis; Table 22, 0.5 ppm a.i.): 53%

Compound: O=C(NCc1ncc(C(F)(F)F)cc1Cl)c1c(Cl)cccc1Cl [F143, fluopicolide]
- Efficacy in % found (Phytophthora infestans; Table 10, 5 ppm a.i.): 21%
- Efficacy in % found (Venturia inaequalis; Table 22, 50 ppm a.i.): 0%

Compound: N#Cc1c(Cl)c(Cl)c(Cl)c(C#N)c1Cl [F155, chlorothalonil]
- pest or weed control at 20 ppm (Phytophthora infestans; [3]): 0%
- Efficacy in % found (Pyrenophora teres; Table 14, 250 ppm a.i.): 50%
- Efficacy in % found (Septoria tritici; Table 17, 125 ppm a.i.): 57%
- pest or weed control at 10 ppm (Venturia inaequalis; [5]): 4%

Compound: C#CCOc1ccc(CCNC(=O)C(OCC#C)c2ccc(Cl)cc2)cc1OC (stereo not drawn) [F206, mandipropamid]
- Efficacy in % found (Phytophthora infestans; Table 10, 0.25 ppm a.i.): 47%
- Efficacy in % found (Sphaerotheca fuliginea; [8]): 13%

Compound: CCCOC(=O)NCCCN(C)C [F220, propamocarb hydrochloride]
- pest or weed control at 250 ppm (Alternaria solani; Alternaria solani, topical, 72 h, Table 4, 250 ppm a.i., read-out: Efficacy in % found): 12%
- pest or weed control at 500 ppm (Phytophthora infestans; [3]): 7%
- pest or weed control at 500 ppm (Sphaerotheca fuliginea; Podosphaera fuliginea, 168 h, Table 20, 500 ppm a.i., 7 days after inoculation, read-out: Efficacy in % found): 10%
- pest or weed control at 250 ppm (Venturia inaequalis; [5]): 0%

Compound: COCC(=O)N(c1c(C)cccc1C)C(C)C(=O)OC (stereo not drawn) [F241, metalaxyl]
- Efficacy in % found (Venturia inaequalis; Table 22, 50 ppm a.i.): 0%

Compound: COCC(=O)N(c1c(C)cccc1C)[C@H](C)C(=O)OC [F242, metalaxyl-M]
- Efficacy in % found (Sphaerotheca fuliginea; [8]): 13%
- Efficacy in % found (Venturia inaequalis; Table 22, 50 ppm a.i.): 0%

Compound: N#Cc1c[nH]cc1-c1cccc2c1OC(F)(F)O2 [F248, fludioxonil]
- pest or weed control at 100 ppm (Sphaerotheca fuliginea; Podosphaera fuliginea, 168 h, read-out: Efficacy in % found): 30%
- Efficacy in % found (Botrytis cinerea; 2.5 ppm a.i.): 26%
- pest or weed control at 50 ppm (Venturia inaequalis; [5]): 0%

Compound: Cn1c(=O)c2sc3c(=O)n(C)c(=O)c3sc2c1=O [F319, 2,6-dimethyl-1H,5H-[1,4]dithiino[2,3-c:5,6-c′]dipyrrole-1,3,5,7(2H,6H)-tetrone]
- Efficacy in % found (Alternaria solani; Table 2, 50 ppm a.i.): 5%
- Efficacy in % found (Phytophthora infestans; Table 11, 50 ppm a.i.): 5%
- Efficacy in % found (Sphaerotheca fuliginea; Table 19, 50 ppm a.i., 7 days after inoculation): 0%
- Efficacy in % found (Venturia inaequalis; Table 23, 25 ppm a.i.): 38%

Compound: fosetyl-aluminium [F281]
- Efficacy in % found (Alternaria solani; Table 3, 50 ppm a.i.): 15%
- Efficacy in % found (Phytophthora infestans; Table 10, 50 ppm a.i.): 55%
- Efficacy in % found (Sphaerotheca fuliginea; [8]): 13%
- Efficacy in % found (Venturia inaequalis; Table 22, 50 ppm a.i.): 0%

Compound: mancozeb [F174]
- Efficacy in % found (Phytophthora infestans; Table 11, 20 ppm a.i.): 0%
- Efficacy in % found (Sphaerotheca fuliginea; [9]): 0%
- Efficacy in % found (Venturia inaequalis; Table 23, 10 ppm a.i.): 0%

Compound: phosphorous acid and its salts [F298]
- Efficacy in % found (Phytophthora infestans; Table 10, 500 ppm a.i.): 76%
- Efficacy in % found (Venturia inaequalis; Table 22, 50 ppm a.i.): 0%

Compound: propineb [F180]
- Efficacy in % found (Phytophthora infestans; Table 11, 20 ppm a.i.): 8%
- Efficacy in % found (Sphaerotheca fuliginea; [9]): 0%
- Efficacy in % found (Venturia inaequalis; Table 23, 10 ppm a.i.): 81%
